Values quoted from earlier work in patent publication US20050203014A1, “Composition and methods for modulating CNS activity” (Curis, Inc., priority 2003, published 2005).

Assays:
[1] = system: knock-out mice lacking 5-HT1A receptors; conditions: 5-HT1A receptor knock-out mice
[2] = system: dentate gyrus of the rat hippocampus

Structure (SMILES)	response to antidepressant [1]	neurogenesis in the dentate gyrus [2]
CNCCCN1c2ccccc2CCc2ccccc21 [desipramine]	respond	–
CNCCC(Oc1ccc(C(F)(F)F)cc1)c1ccccc1 (centres unmarked) [fluoxetine]	non-responsive	increase neurogenesis
CN(C)CCCN1c2ccccc2CCc2ccccc21 [imipramine]	respond	increase neurogenesis
